Experimental data from US9139557B2, “Carboxamide compounds and their use as calpain inhibitors” (Abbott GmbH & Co. KG, priority 2006, dated 2015).

Key:
Assay type in all cases: biochemical
[1] = target: T1, cathepsin K (Homo sapiens, UniProt P43235); assay: Cathepsin K enzyme inhibition in vitro (kinetic fluorescence assay); conditions: Ki(cathepsin K)/Ki(calpain) ratio
T1 construct: purchased Calbiochem 342001; host or cells: E. coli
T1 sequence (P43235 115-329): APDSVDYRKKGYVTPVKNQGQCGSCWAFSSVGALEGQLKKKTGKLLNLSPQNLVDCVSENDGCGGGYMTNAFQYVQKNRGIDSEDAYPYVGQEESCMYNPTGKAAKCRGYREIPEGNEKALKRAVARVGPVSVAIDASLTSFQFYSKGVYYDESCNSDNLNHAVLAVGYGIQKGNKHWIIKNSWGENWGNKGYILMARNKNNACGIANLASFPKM
Protocol: Testing for blockade of the corresponding enzymic activities was carried out by means of kinetic fluorescence assays (excitation 390 nm, emission 460 nm).
Apparent Ki values were calculated from the experimentally determined IC50 values by the Cheng-Prussoff relation assuming a reversible competitive enzyme inhibition. The Km values of the substrates used under the assay conditions indicated above were: 90 μM (Z-Phe-Arg-AMC, cathepsin B), 10 μM (Z-Gly-Pro-Arg-AMC, cathepsin K), 2 μM (Z-Phe-Arg-AMC, cathepsin L), and 30 μM (Z-Val-Val-Arg-AMC, cathepsin S).
The indicated Ki values are averages of the inhibition constants calculated on the basis of 2 to 4 independent dose-effect plots.
• 1. Calpain I: • 20 nM calpain-I—isolated from human erythrocytes (Calbiochem #208713), 100 μM Suc-Leu-Tyr-AMC (Bachem #1-1355) as substrate in buffer with 62 mM imidazole, 0.3 mM CaCl2, 0.10% CHAPS, 0.05% BSA, 1 mM DTT at pH 7.3 and room temperature. • 2. Cathepsin B: • 0.25 nM cathepsin B—isolated from human liver (Calbiochem #219362), 100 μM Z-Phe-Arg-AMC (Bachem #1-1160) as substrate 50 mM MES, 2 mM EDTA, 0.05% Brij 35, 2.5 mM L-cysteine, pH 6.0, room temperature. • 3. Cathepsin K: • 3 nM cathepsin K—activated from recombinant human procathepsin K from E. coli (Calbiochem #342001), 10 μM Z-Gly-Pro-Arg-AMC (Biomol #P-142) as substrate in 50 mM MES, 2 mM EDTA, 0.05% Brij 35, 2.5 mM L-cysteine, pH 6.0, room temperature. • 4. Cathepsin L: • 1 nM cathepsin L—isolated from human liver (Calbiochem #219402), 2 μM Z-Phe-Arg-AMC (Bachem #1-1160) as substrate in 50 mM MES, 2 mM EDTA, 0.05% Brij 35, 2.5 mM L-cysteine, pH 6.0, room temperature. • 5. Cathepsin S: • 0.5 nM recombinant human cathepsin S from E. coli (Calbiochem #219343), 20 μM Z-Val-Val-Arg-AMC (Bachem #1-1540) as substrate in 50 mM MES, 2 mM EDTA, 0.05% Brij 35, 2.5 mM L-cysteine, pH 6.0, room temperature.

[2] = target: T2, cathepsin L (Homo sapiens, UniProt P07711); assay: Cathepsin L enzyme inhibition in vitro (kinetic fluorescence assay); conditions: Ki(cathepsin L)/Ki(calpain) ratio
T2 construct: cathepsin L—isolated from human liver; purchased Calbiochem 219402; host or cells: human liver (tissue isolate)
Procedure, shortened: (§1)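 Kinetic fluorescence (ex 390/em 460 nm), room temperature: calpain-I (human erythrocyte, 20 nM) with 100 µM Suc-Leu-Tyr-AMC, imidazole/CaCl2 pH 7.3; cathepsin B (liver, 0.25 nM), 100 µM Z-Phe-Arg-AMC; L (liver, 1 nM), 2 µM Z-Phe-Arg-AMC; S (recombinant, 0.5 nM), 20 µM Z-Val-Val-Arg-AMC; cathepsins in MES/EDTA/cysteine pH 6.0. Apparent Ki via Cheng-Prusoff, 2–4 curves averaged.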

[3] = target: T3, cathepsin S (Homo sapiens, UniProt P25774); assay: Cathepsin S enzyme inhibition in vitro (kinetic fluorescence assay); conditions: Ki(cathepsin S)/Ki(calpain) ratio
T3 construct: purchased Calbiochem 219343; host or cells: E. coli
Procedure, shortened: as §1

[4] = target: T4, cathepsin B (Homo sapiens, UniProt P07858); assay: Cathepsin B enzyme inhibition in vitro (kinetic fluorescence assay); conditions: Ki(cathepsin B)/Ki(calpain) ratio
T4 construct: cathepsin B—isolated from human liver; purchased Calbiochem 219362; host or cells: human liver (tissue isolate)
Procedure, shortened: as §1

T3 sequence (P25774 115-331): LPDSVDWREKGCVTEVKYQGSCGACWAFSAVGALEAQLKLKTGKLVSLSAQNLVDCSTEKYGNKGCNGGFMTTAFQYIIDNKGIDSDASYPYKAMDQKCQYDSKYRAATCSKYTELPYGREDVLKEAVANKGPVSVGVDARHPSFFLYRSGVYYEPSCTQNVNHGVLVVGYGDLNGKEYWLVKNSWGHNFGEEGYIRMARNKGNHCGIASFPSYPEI
T2 sequence (P07711 114-333): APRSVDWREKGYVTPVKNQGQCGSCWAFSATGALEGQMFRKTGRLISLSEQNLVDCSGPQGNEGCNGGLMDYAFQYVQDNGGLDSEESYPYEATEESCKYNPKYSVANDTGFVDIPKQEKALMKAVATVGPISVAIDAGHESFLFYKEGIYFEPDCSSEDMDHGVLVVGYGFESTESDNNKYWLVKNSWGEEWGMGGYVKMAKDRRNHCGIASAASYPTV

| SMILES | Sel cat. K [1] | Sel cat. L [2] | Sel cat. S [3] | Sel cat. B [4] |
| --- | --- | --- | --- | --- |
| NC(=O)C(=O)C(Cc1ccc(Cl)cc1)NC(=O)c1cccnc1-n1ccc(-c2ccccc2)n1 (stereo not shown) [Example 50, N-[3-Amino-1-(4-chlorobenzyl)-2,3-dioxopropyl]-2-(3-phenyl-1H-pyrazol-1-yl)nicotinamide] | + (+ means 10≦Ki(cathepsin K)/Ki(calpain)<30) | + (+ means 30≦Ki(cathepsin L)/Ki(calpain)<50) | + (+ means 50≦Ki(cathepsin S)/Ki(calpain)<100) | + (+ means 10≦Ki(cathepsin B)/Ki(calpain)<30) |
| COc1ccc(-c2ccn(-c3ncccc3C(=O)NC(Cc3ccccc3)C(=O)C(N)=O)n2)cc1 (stereo not shown) [Example 48, N-(3-Amino-1-benzyl-2,3-dioxopropyl)-2-[3-(4-methoxyphenyl)-1H-pyrazol-1-yl]nicotinamide] | + (+ means 10≦Ki(cathepsin K)/Ki(calpain)<30) | ++ (++ means a Ki(cathepsin L)/Ki(calpain) ratio of ≧50) | ++ (++ means a Ki(cathepsin S)/Ki(calpain) ratio of ≧100) | + (+ means 10≦Ki(cathepsin B)/Ki(calpain)<30) |
| NC(=O)C(=O)C(Cc1ccccc1)NC(=O)c1cccnc1-n1ccc(-c2ccccc2Cl)n1 (stereo not shown) [Example 54, N-(3-Amino-1-benzyl-2,3-dioxopropyl)-2-[3-(2-chlorophenyl)-1H-pyrazol-1-yl]nicotinamide] | ++ (++ means a Ki(cathepsin K)/Ki(calpain) ratio of ≧30) | ++ (++ means a Ki(cathepsin L)/Ki(calpain) ratio of ≧50) | ++ (++ means a Ki(cathepsin S)/Ki(calpain) ratio of ≧100) | ++ (++ means a Ki(cathepsin B)/Ki(calpain) ratio of ≧30) |
| COc1ccc(F)cc1-c1ccn(-c2ncccc2C(=O)NC(Cc2ccccc2)C(=O)C(N)=O)n1 (stereo not shown) [Example 130, N-[3-Amino-2,3-dioxo-1-(phenylmethyl)propyl]-2-{3-[5-fluoro-2-(methyloxy)phenyl]-1H-pyrazol-1-yl}pyridine-3-carboxamide] | ++ (++ means a Ki(cathepsin K)/Ki(calpain) ratio of ≧30) | ++ (++ means a Ki(cathepsin L)/Ki(calpain) ratio of ≧50) | ++ (++ means a Ki(cathepsin S)/Ki(calpain) ratio of ≧100) | ++ (++ means a Ki(cathepsin B)/Ki(calpain) ratio of ≧30) |
| Cl.NC(=O)C(=O)C(Cc1cccnc1)NC(=O)c1cccnc1-n1ccc(-c2ccccc2)n1 (stereo not shown) [Example 88, N-[3-Amino-2,3-dioxo-1-(pyridin-3-ylmethyl)propyl]-2-(3-phenyl-1H-pyrazol-1-yl)pyridine-3-carboxamide hydrochloride] | ++ (++ means a Ki(cathepsin K)/Ki(calpain) ratio of ≧30) | ++ (++ means a Ki(cathepsin L)/Ki(calpain) ratio of ≧50) | ++ (++ means a Ki(cathepsin S)/Ki(calpain) ratio of ≧100) | + (+ means 10≦Ki(cathepsin B)/Ki(calpain)<30) |
| COc1ccc(CC(NC(=O)c2cccnc2-n2ccc(-c3ccccc3)n2)C(=O)C(N)=O)cc1 (stereo not shown) [Example 80, N-[3-Amino-1-(4-methoxybenzyl)-2,3-dioxopropyl]-2-(3-phenyl-1H-pyrazol-1-yl)nicotinamide] | + (+ means 10≦Ki(cathepsin K)/Ki(calpain)<30) | ++ (++ means a Ki(cathepsin L)/Ki(calpain) ratio of ≧50) | ++ (++ means a Ki(cathepsin S)/Ki(calpain) ratio of ≧100) | ++ (++ means a Ki(cathepsin B)/Ki(calpain) ratio of ≧30) |
| NC(=O)C(=O)C(Cc1ccccc1)NC(=O)c1cccnc1-n1ccc(-c2ccc(N3CCOCC3)cc2F)n1 (stereo not shown) [Example 102, N-[3-Amino-2,3-dioxo-1-(phenylmethyl)propyl]-2-[3-(2-fluoro-4-morpholin-4-ylphenyl)-1H-pyrazol-1-yl]pyridine-3-carboxamide] | ++ (++ means a Ki(cathepsin K)/Ki(calpain) ratio of ≧30) | ++ (++ means a Ki(cathepsin L)/Ki(calpain) ratio of ≧50) | ++ (++ means a Ki(cathepsin S)/Ki(calpain) ratio of ≧100) | + (+ means 10≦Ki(cathepsin B)/Ki(calpain)<30) |
| COc1ccc(Cl)cc1-c1ccn(-c2ncccc2C(=O)NC(Cc2ccccc2)C(=O)C(N)=O)n1 (stereo not shown) [Example 131, N-[3-Amino-2,3-dioxo-1-(phenylmethyl)propyl]-2-{3-[5-chloro-2-(methyloxy)phenyl]-1H-pyrazol-1-yl}pyridine-3-carboxamide] | ++ (++ means a Ki(cathepsin K)/Ki(calpain) ratio of ≧30) | ++ (++ means a Ki(cathepsin L)/Ki(calpain) ratio of ≧50) | ++ (++ means a Ki(cathepsin S)/Ki(calpain) ratio of ≧100) | ++ (++ means a Ki(cathepsin B)/Ki(calpain) ratio of ≧30) |
| CS(=O)(=O)Nc1cnc(-n2ccc(-c3ccccc3)n2)c(C(=O)NC(Cc2ccccc2)C(=O)C(N)=O)c1 (stereo not shown) [Example 158, N-[3-Amino-2,3-dioxo-1-(phenylmethyl)propyl]-5-[(methylsulfonyl)amino]-2-(3-phenyl-1H-pyrazol-1-yl)pyridine-3-carboxamide] | ++ (++ means a Ki(cathepsin K)/Ki(calpain) ratio of ≧30) | ++ (++ means a Ki(cathepsin L)/Ki(calpain) ratio of ≧50) | ++ (++ means a Ki(cathepsin S)/Ki(calpain) ratio of ≧100) | ++ (++ means a Ki(cathepsin B)/Ki(calpain) ratio of ≧30) |
| NC(=O)C(=O)C(Cc1ccccc1)NC(=O)c1cccnc1-n1ccc(-c2cccc3ccccc23)n1 (stereo not shown) [Example 110, N-[3-Amino-2,3-dioxo-1-(phenylmethyl)propyl]-2-(3-naphthalen-1-yl-1H-pyrazol-1-yl)pyridine-3-carboxamide] | ++ (++ means a Ki(cathepsin K)/Ki(calpain) ratio of ≧30) | ++ (++ means a Ki(cathepsin L)/Ki(calpain) ratio of ≧50) | ++ (++ means a Ki(cathepsin S)/Ki(calpain) ratio of ≧100) | ++ (++ means a Ki(cathepsin B)/Ki(calpain) ratio of ≧30) |
| NC(=O)C(=O)C(Cc1cccc(F)c1)NC(=O)c1cccnc1-n1ccc(-c2ccccc2OC(F)(F)F)n1 (stereo not shown) [Example 162, N-{3-Amino-1-[(3-fluorophenyl)methyl]-2,3-dioxopropyl}-2-(3-{2-[(trifluoromethyl)oxy]phenyl}-1H-pyrazol-1-yl)pyridine-3-carboxamide] | ++ (++ means a Ki(cathepsin K)/Ki(calpain) ratio of ≧30) | ++ (++ means a Ki(cathepsin L)/Ki(calpain) ratio of ≧50) | ++ (++ means a Ki(cathepsin S)/Ki(calpain) ratio of ≧100) | ++ (++ means a Ki(cathepsin B)/Ki(calpain) ratio of ≧30) |
| NC(=O)C(=O)C(Cc1ccccc1)NC(=O)c1cccnc1-n1cc(Cl)c(-c2ccc(F)cc2)n1 (stereo not shown) [Example 184, N-[3-Amino-2,3-dioxo-1-(phenylmethyl)propyl]-2-[4-chloro-3-(4-fluorophenyl)-1H-pyrazol-1-yl]pyridine-3-carboxamide] | + (+ means 10≦Ki(cathepsin K)/Ki(calpain)<30) | ++ (++ means a Ki(cathepsin L)/Ki(calpain) ratio of ≧50) | ++ (++ means a Ki(cathepsin S)/Ki(calpain) ratio of ≧100) | + (+ means 10≦Ki(cathepsin B)/Ki(calpain)<30) |
| NC(=O)C(=O)C(Cc1ccccc1)NC(=O)c1cccnc1-n1ccc(-c2cccc(N3CCOCC3)c2)n1 (stereo not shown) [Example 58, N-(3-Amino-1-benzyl-2,3-dioxopropyl)-2-[3-(3-morpholin-4-ylphenyl)-1H-pyrazol-1-yl]nicotinamide] | + (+ means 10≦Ki(cathepsin K)/Ki(calpain)<30) | ++ (++ means a Ki(cathepsin L)/Ki(calpain) ratio of ≧50) | ++ (++ means a Ki(cathepsin S)/Ki(calpain) ratio of ≧100) | + (+ means 10≦Ki(cathepsin B)/Ki(calpain)<30) |
